Results: patent US10292390B2, “Inhibition and dispersion of bacterial biofilms with 2-aminobenzimidazole derivatives” (WISCONSIN ALUMNI RESEARCH FOUNDATION, priority 2011, dated 2019)

Experiments:
[1] = tested on: preformed P. aeruginosa biofilms; test: biofilm dispersion assay (preformed 24 h-old biofilms, crystal violet); assay type: cell-based, Pseudomonas aeruginosa; settings: for dispersion of preformed biofilm / DC50: 24 h-old biofilm, additional 24 h with compound; for effect on final OD600 measurement during dispersion: 48 h; for DC50: Pseudomonas aeruginosa, read-out: half maximal dispersion DC50
Experimental: Compounds capable of not only inhibiting biofilm growth, but also dispersing preformed biofilms, are of particular value for a range of clinical and other applications. The ability of compounds 7 and 21 to disperse 24 h-old P. aeruginosa biofilms was tested using the crystal violet staining assay (FIG. 1B). Biofilms were allowed to develop in the absence of compound for 24 h, after which non-biofilm material was removed by washing with buffer and fresh media with compound was added. Biofilm was quantified after an additional 24 h, and the amount of dispersed biofilm was determined via comparison of the amount of biofilm at 48 h in the presence of compound versus the amount of biofilm at 24 h in the absence of compound. 2-ABIs 7 and 21 were capable of strongly dispersing P. aeruginosa biofilms (˜80%), with half maximal dispersion DC50 values of 84 μM and 92 μM, respectively (FIG. 1B).
Compounds 7 and 21 were evaluated for their ability to disperse preformed P. aeruginosa biofilms. For biofilm dispersion assessment, the static CV biofilm assay described above was modified in order to introduce compound to preformed biofilm for an additional incubation period. Solvent evaporation delivery of compound was not possible in this format; thus, stock solutions of compounds 7 and 21 were prepared in 95:5 M9+:LB media. Stocks of 7 and 21 were prepared at 3.16 mM and 1 mM, respectively (21 was insoluble at 3.16 mM). These stocks were diluted in series to obtain final concentrations as follows: 10^x μM where x=3.5 (7 only), 3, 2.5, 2, 1.5 (21 only), 1, 0, −1, or −2. Biofilms were allowed to form in microtiter plates in the absence of compound for 24 h, after which non-biofilm material was removed by dumping and washing as normal with sterile PBS. After the second washing, 200 μL of fresh 95:5 M9+:LB media containing compound at various concentrations was added to the wells, and the plates were incubated at 37° C. for an additional 24 h. One set of wells was left empty in order to assess the amount of biofilm present after the first 24 h incubation, while another set of wells was given media without compound to assess the amount of biofilm at 48 h. […] After the second 24 h incubation, non-biofilm material was removed by dumping and washing 4× with PBS (the additional washing at 48 h was found necessary to completely remove detached Int biofilm that had settled over the SA biofilm; data not shown). Biofilm was fixed and quantified with CV as described above. The amount of dispersed biofilm was determined via comparison of the amount of biofilm at 48 h in the presence of compound versus the amount of biofilm in the “no compound” positive control at 24 h. A higher degree of error was often observed with this assay format due to the additional incubation and washing steps; thus, all compounds were tested in replicates of 6 wells.
DC50 values for biofilm dispersion by 7 and 21 were calculated using a sigmoidal curve fit (three parameters) and are reported with a 95% Cl.

[2] = tested on: LasR activity, P. aeruginosa PAO1/plasI-LVAgfp; test: Las QS reporter assay (GFP fluorescence); assay type: cell-based, Pseudomonas aeruginosa; settings: for LasR activity: at 1-10× IC50 values for biofilm inhibition; for inhibition of Las-QS system: fluorescence dose curves, 12 and 24 h
Experimental: As introduced above, the role of QS in biofilm formation is well documented and therefore the abilities of 7 and 21 to inhibit QS in P. aeruginosa were evaluated. For this purpose, two wild-type P. aeruginosa QS reporter strains were prepared that contain the plasmids plasI-LVAgfp and prhII-LVAgfp. (see: The Examples) These strains report the activity of two intracellular QS receptors in P. aeruginosa (LasR and RhlR) by the production of green fluorescent protein (gfp), allowing for LasR and RhlR activities, and thus QS levels, to be quantified by fluorescence. […] Studies of related 2-ABI derivatives have shown that this class of molecules is bacterial cell permeable, allowing us to surmise that 7 and 21 could act on the Las and Rhl systems intracellularly. […] The precise targets of 7 and 21 that result in QS disruption are not yet known.
To evaluate the activity of compounds 7 and 21 on QS in P. aeruginosa, we prepared two P. aeruginosa QS reporter strains: PAO1/plasI-LVAgfp and PAO1/prhII-LVAgfp. These strains contain the reporter plasmids plasI-LVAgfp and prhII-LVAgfp, respectively, which contain the laslI or rhII promoter sequences fused to LVAgfp. Binding of activated LasR or RhlR to these promoters induces GFP production, which can be quantified by fluorescence and is proportional to the level of LasR or RhlR activation. LVAgfp is an unstable form of GFP with an estimated half-life of 40-60 min, which allows for a more real-time analysis of gene expression (wild-type GFP has a half-life of greater than 1 day). Further, this specific GFP is the variant GFPmut3b that has a shifted excitation maximum near 501 nm (wild-type GFP has an excitation maximum near 395 nm); emission maximum is similar to wild-type GFP at 511 nm (wild-type GFP has emission maximum near 508 nm). Utilizing this GFP variant is key to detection over native fluorescent pigments that are produced in P. aeruginosa and excite near 400 nm and emit near 500 nm. Preparation and analysis of the PAO1/plasI-LVAgfp and PAO1/prhII-LVAgfp reporters are outlined below.
Compounds 7 and 21 were evaluated for their ability to modulate the Las and Rhl systems using the P. aeruginosa PAO1/plasI-LVAgfp and PAO1/prhII-LVAgfp reporters. We used the same exact setup as the static biofilm assay in 96-well microtiter plates for P. aeruginosa with the exception that freezer stocks were streaked on LB/agar with 300 μg/mL Carb. Microtiter plates were prepared similar to dose-response analysis such that final well concentrations upon inoculum addition ranged from 10^x μM where x=3.5, 3, 2.5, 2, 1.5, 1, 0, −1, or −2. Measurements of FL500/540 and OD600 were made at 12 and 24 h, and after 24 h the samples were evaluated for biofilm formation using the CV procedure. […]

SMILES	dispersion of preformed biofilm [1] [%]	effect on final OD600 measurement during dispersion [1]	DC50 [1] [µM]	LasR activity [2]	inhibition of Las-QS system [2]
Nc1nc2ccccc2[nH]1 [Compound 7, 2-aminobenzimidazole]	~80	without significantly affecting the final OD600 measurement	84	significant reduction	able to inhibit
Cc1cc2nc(N)[nH]c2cc1C [Compound 21, 5,6-Dimethyl-2-aminobenzimidazole]	~80	without significantly affecting the final OD600 measurement	92	significant reduction	able to inhibit
